The test system of data set [1] is Tau-BiFC cells. As to the kind of experiment: Cell viability (cytotoxicity) in tau-BiFC cells, count of stained nuclei. Type of data set: cell-based. To be noted: Forskolin-only group = 100% cell viability; for Cell viability (% @10 μM): compound 10 μM. The gist of the method:
(§1)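 Aggregation was induced by 30 μM Forskolin co-applied with test compound for 48 h, with screening at 1, 3, 10 μM and dose-response at 0.03–30 μM. Nuclei were stained with Hoechst (2 μg/mL) and counted against Forskolin-only wells for cytotoxicity. Inhibition came from BiFC fluorescence relative to Forskolin-only versus untreated cells, with IC50 by nonlinear regression.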

Data set [2] addresses T1, tau protein (Homo sapiens, UniProt P10636).
T1 construct: fused on or other part: Split fluorescent-protein halves for BiFC are fused to tau; In the published tau-BiFC line these are Venus VN173 and VC155
As to the kind of experiment: Tau-BiFC cell model: inhibition of tau protein aggregation. Type of data set: cell-based. Conditions: for remaining activity at 10 µM: compound 10 μM, BiFC fluorescence, read-out: Response (% @10 μM); for IC50: Tau BiFC in cells, with Forskolin 30 μM, 48 hours. The gist of the method: as §1

Setting [3] is: 48 h, Forskolin-only group = 100% tau protein-aggregated state.

SMILES strings stand for the structures.

T1 sequence (P10636 2-441 isoform P10636-8 limits assumed): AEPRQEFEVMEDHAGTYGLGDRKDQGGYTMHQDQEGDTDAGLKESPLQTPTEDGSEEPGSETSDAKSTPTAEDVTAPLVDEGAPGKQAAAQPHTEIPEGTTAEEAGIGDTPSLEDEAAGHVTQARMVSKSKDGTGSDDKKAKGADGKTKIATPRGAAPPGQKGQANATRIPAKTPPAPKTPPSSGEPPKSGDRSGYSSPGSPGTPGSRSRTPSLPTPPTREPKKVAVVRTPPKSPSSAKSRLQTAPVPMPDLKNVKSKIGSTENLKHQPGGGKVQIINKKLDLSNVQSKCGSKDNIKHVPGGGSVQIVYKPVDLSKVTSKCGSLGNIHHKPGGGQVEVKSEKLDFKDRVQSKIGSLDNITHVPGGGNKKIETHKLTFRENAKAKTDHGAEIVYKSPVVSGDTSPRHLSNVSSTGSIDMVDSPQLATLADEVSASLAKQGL

As to `CN(N=C(C#N)C#N)c1ccc(Oc2ccccc2)c(F)c1` [Compound 77, (3-fluoro-4-phenoxyphenyl)(methyl)carbonohydrazonoyl dicyanide], the “Cell viability (% @10 μM)” value in data set [1] was determined as 91.6%. Also, the remaining activity at 10 µM in data set [2] (setting [3]) was 84.8%.

`Cc1ccc(COc2ccc(NN=C(C#N)C#N)cc2C)cc1` [Compound 142, (3-methyl-4-(4-methylbenzyloxy)phenyl)carbonohydrazonoyl dicyanide]: in data set [1] (compounds marked *: measured at 3 μM), the Cell viability worked out at 111%. Further, in data set [2] (48 h, compounds marked *: measured at 3 μM, Forskolin-only group = 100% tau protein-aggregated state, read-out: Response), the remaining activity at 3 µM was -5%. In data set [2], this molecule had an IC50 of 1610 nM.

Regarding `COc1cc(C(=O)Nc2cnc(C)cn2)ccc1NN=C(C#N)C#N` [Compound 51, (2-methoxy-4-(5-methylpyrazin-2-ylcarbamoyl)phenyl)carbonohydrazonoyl dicyanide], in data set [1], the “Cell viability (% @10 μM)” value is given as 107.1%. Besides, in data set [2] (setting [3]), the remaining activity at 10 µM was 45.4%.

For the molecule `N#CC(C#N)=NNc1ccc(Oc2ccc(C(F)(F)F)nc2)cc1` [Compound 89, (4-(6-(trifluoromethyl)pyridin-3-yloxy)phenyl)carbonohydrazonoyl dicyanide], in data set [1], the “Cell viability (% @10 μM)” value is 32.5%. Also, the remaining activity at 10 µM in data set [2] (setting [3]) is 0%. In data set [2], this molecule returned an IC50 of 2400 nM.

`N#CC(C#N)=NNc1ccc(Oc2cncnc2)c(F)c1` [Compound 82, (3-fluoro-4-(pyrimidin-5-yloxy)phenyl)carbonohydrazonoyl dicyanide]: the “Cell viability (% @10 μM)” value in data set [1] was found to be 126.4%. In data set [2] (setting [3]), the remaining activity at 10 µM worked out at 0%. In data set [2], this molecule yielded an IC50 of 2960 nM.

With `N#CC(C#N)=NNc1ccc(OCc2ccc(C(F)(F)F)cc2)c(C(F)(F)F)c1` [Compound 98, (3-(trifluoromethyl)-4-(4-(trifluoromethyl)benzyloxy)phenyl)carbonohydrazonoyl dicyanide], the “Cell viability (% @10 μM)” value in data set [1] stood at 26.9%. In data set [2] (setting [3]), the remaining activity at 10 µM came to 0%. The molecule also yielded an IC50 in data set [2] of 250 nM.

In the case of `COc1ccc(CCOc2ccc(NN=C(C#N)C#N)cn2)cc1` [Compound 102, (6-(4-methoxyphenethoxy)pyridin-3-yl)carbonohydrazonoyl dicyanide], in data set [1], the “Cell viability (% @10 μM)” value is listed as 54.5%. For the same molecule, in data set [2] (setting [3]), the remaining activity at 10 µM is 0%. Further, in data set [2], it took 960 nM to reach half-maximal inhibition (IC50).

`N#CC(C#N)=NNc1ccc(Oc2cccnn2)cc1` [Compound 92, (4-(pyridazin-3-yloxy)phenyl)carbonohydrazonoyl dicyanide]: the “Cell viability (% @10 μM)” value in data set [1] came to 116.8%. Further, in data set [2] (setting [3]), the remaining activity at 10 µM was 0%. The molecule further showed an IC50 in data set [2] of 550 nM.

Take `N#CC(C#N)=NNc1ccc(OCc2nc3ccccc3o2)cc1` [Compound 128, (4-(benzo[d]oxazol-2-ylmethoxy)phenyl)carbonohydrazonoyl dicyanide]: the “Cell viability (% @10 μM)” value in data set [1] came out at 108.5%. For the same molecule, in data set [2] (setting [3]), the remaining activity at 10 µM is 0%. Besides, the concentration for half-maximal inhibition (IC50) in data set [2] was 300 nM.

Turning to `N#CC(C#N)=NNc1ccc(OCCc2ccccc2)nc1` [Compound 100, (6-phenethoxypyridin-3-yl)carbonohydrazonoyl dicyanide], the “Cell viability (% @10 μM)” value in data set [1] is listed as 39.4%. Further, the remaining activity at 10 µM in data set [2] (setting [3]) was found to be 0%. The half-inhibitory concentration (IC50) in data set [2] worked out at 780 nM.

With `N#CC(C#N)=NNc1ccc(NS(=O)(=O)c2ccc(F)cc2)nc1` [Compound 64, (6-(4-fluorophenylsulfonamido)pyridin-3-yl)carbonohydrazonoyl dicyanide], in data set [1], the “Cell viability (% @10 μM)” value was determined as 114.2%. The remaining activity at 10 µM in data set [2] (setting [3]) was found to be 56%.

With `N#CC(C#N)=NNc1ccc(C(=O)Nc2cncnc2)nc1` [Compound 42, (6-(pyrimidin-5-ylcarbamoyl)pyridin-3-yl)carbonohydrazonoyl dicyanide], the “Cell viability (% @10 μM)” value in data set [1] was 123.1%. For the same molecule, the remaining activity at 10 µM in data set [2] (setting [3]) came to 0%.

Take `COc1ccc(CCOc2ccc(NN=C(C#N)C#N)cc2)cc1` [Compound 120, (4-(4-methoxyphenethoxy)phenyl)carbonohydrazonoyl dicyanide]: in data set [1], the “Cell viability (% @10 μM)” value is recorded as 66.2%. For the same molecule, the remaining activity at 10 µM in data set [2] (setting [3]) is 0%. Further, inhibition in data set [2] was half-maximal at 1450 nM (IC50).

As to `N#CC(C#N)=NNc1ccc(NC(=O)c2cnc3ccccc3n2)nc1` [Compound 32, (6-(quinoxaline-2-carboxamido)pyridin-3-yl)carbonohydrazonoyl dicyanide], the “Cell viability (% @10 μM)” value in data set [1] is given as 145.3%. Further, the remaining activity at 10 µM in data set [2] (setting [3]) amounted to 0%. For the same molecule, half-maximal inhibition in data set [2] (IC50) required 310 nM.

In the case of `N#CC(C#N)=NNc1ccc(OCc2ccc(C(F)(F)F)cc2)cc1` [Compound 118, (4-(4-(trifluoromethyl)benzyloxy)phenyl)carbonohydrazonoyl dicyanide], the “Cell viability (% @10 μM)” value in data set [1] is on record as 82.6%. For the same molecule, the remaining activity at 10 µM in data set [2] (setting [3]) stood at 25.7%. The molecule also came in with a 50% inhibitory concentration (IC50) in data set [2] of 5750 nM.

On to `COc1cc(NN=C(C#N)C#N)ccc1C(=O)Nc1cncc(C)c1` [Compound 107, (3-methoxy-4-(5-methylpyridin-3-ylcarbamoyl)phenyl)carbonohydrazonoyl dicyanide], for which the “Cell viability (% @10 μM)” value in data set [1] is reported as 137.9%. The remaining activity at 10 µM in data set [2] (setting [3]) stood at 0%. Also, inhibition in data set [2] was half-maximal at 600 nM (IC50).

With `N#CC(C#N)=NNc1ccc(OCCc2ccc(C(F)(F)F)cc2)c(C(F)(F)F)c1` [Compound 135, (3-(trifluoromethyl)-4-(4-(trifluoromethyl)phenethoxy)phenyl)carbonohydrazonoyl dicyanide], the “Cell viability (% @10 μM)” value in data set [1] came out at 41.7%. Further, the remaining activity at 10 µM in data set [2] (setting [3]) turned out to be 0%.

On to `COc1cc(NN=C(C#N)C#N)ccc1C(=O)Nc1ccc(C)cc1` [Compound 108, (3-methoxy-4-(p-tolylcarbamoyl)phenyl)carbonohydrazonoyl Dicyanide], for which the “Cell viability (% @10 μM)” value in data set [1] came to 121.8%. For the same molecule, the remaining activity at 10 µM in data set [2] (setting [3]) is 0%. In data set [2], this molecule had a half-inhibitory concentration (IC50) of 1400 nM.

In the case of `Cn1cc(S(=O)(=O)Nc2ccc(NN=C(C#N)C#N)cn2)cn1` [Compound 61, (6-(1-methyl-1H-pyrazole-4-sulfonamido)pyridin-3-yl)carbonohydrazonoyl dicyanide], in data set [1], the “Cell viability (% @10 μM)” value was 112.7%. Moreover, the remaining activity at 10 µM in data set [2] (setting [3]) is 109%.

Regarding `N#CC(C#N)=NNc1ccc(NS(=O)(=O)c2ccccc2)nc1` [Compound 58, (6-(phenylsulfonamido)pyridin-3-yl)carbonohydrazonoyl dicyanide], the “Cell viability (% @10 μM)” value in data set [1] turned out to be 113.5%. The remaining activity at 10 µM in data set [2] (setting [3]) was 51.4%.

As to `N#CC(C#N)=NNc1ccc(Oc2nccs2)cc1` [Compound 116, (4-(thiazol-2-yloxy)phenyl)carbonohydrazonoyl dicyanide], in data set [1], the “Cell viability (% @10 μM)” value is on record as 124%. In data set [2] (setting [3]), the remaining activity at 10 µM stood at 0%. The half-inhibitory concentration (IC50) in data set [2] was found to be 1400 nM.

For the molecule `Cc1cc(NN=C(C#N)C#N)ccc1Oc1cncnc1` [Compound 81, (3-methyl-4-(pyrimidin-5-yloxy)phenyl)carbonohydrazonoyl dicyanide], in data set [1], the “Cell viability (% @10 μM)” value amounted to 116.2%. Further, in data set [2] (setting [3]), the remaining activity at 10 µM is 0%. Besides, in data set [2], inhibition was half-maximal at 550 nM (IC50).

In the case of `N#CC(C#N)=NNc1ccc(OCc2nc3ccccc3s2)cc1` [Compound 129, (4-(benzo[d]thiazol-2-ylmethoxy)phenyl)carbonohydrazonoyl dicyanide], the “Cell viability (% @10 μM)” value in data set [1] worked out at 106.9%. The remaining activity at 10 µM in data set [2] (setting [3]) was determined as 0%. Further, in data set [2], the IC50 amounted to 200 nM.

Regarding `Cc1cnc(NC(=O)c2ccc(NN=C(C#N)C#N)cc2C)cn1` [Compound 52, (3-methyl-4-(5-methylpyrazin-2-ylcarbamoyl)phenyl)carbonohydrazonoyl dicyanide], in data set [1], the “Cell viability (% @10 μM)” value was 120.2%. For the same molecule, the remaining activity at 10 µM in data set [2] (setting [3]) is 24%.

With `CN(N=C(C#N)C#N)c1ccc(Oc2ccccc2)cn1` [Compound 75, methyl(5-phenoxypyridin-2-yl)carbonohydrazonoyl dicyanide], the “Cell viability (% @10 μM)” value in data set [1] was 131.4%. Moreover, in data set [2] (setting [3]), the remaining activity at 10 µM came to 102%.

As for `N#CC(C#N)=NNc1ccc(NC(=O)c2ccccc2F)nc1` [Compound 17, (6-(2-fluorobenzamido)pyridin-3-yl)carbonohydrazonoyl dicyanide], in data set [1], the “Cell viability (% @10 μM)” value amounted to 102.7%. Besides, in data set [2] (setting [3]), the remaining activity at 10 µM came to 0%. Besides, in data set [2], the IC50 was 310 nM.

On to `N#CC(C#N)=NNc1ccc(Oc2cccc(C#N)c2)cc1` [Compound 88, (4-(3-cyanophenoxy)phenyl)carbonohydrazonoyl dicyanide], for which, in data set [1], the “Cell viability (% @10 μM)” value is listed as 44.4%. Besides, the remaining activity at 10 µM in data set [2] (setting [3]) was 0%. Inhibition in data set [2] was half-maximal at 3060 nM (IC50).

As to `Cc1cncc(NC(=O)c2ccc(NN=C(C#N)C#N)cn2)c1` [Compound 39, (6-(5-methylpyridin-3-ylcarbamoyl)pyridin-3-yl)carbonohydrazonoyl dicyanide], the “Cell viability (% @10 μM)” value in data set [1] is 131.1%. Further, the remaining activity at 10 µM in data set [2] (setting [3]) was determined as 0%. For the same molecule, in data set [2], the IC50 worked out at 630 nM.

`Cc1ccc(NC(=O)c2ccc(NN=C(C#N)C#N)cc2C)cn1` [Compound 53, (3-methyl-4-(6-methylpyridin-3-ylcarbamoyl)phenyl)carbonohydrazonoyl dicyanide]: in data set [1], the “Cell viability (% @10 μM)” value is listed as 116.1%. Also, the remaining activity at 10 µM in data set [2] (setting [3]) was 22.9%.

Turning to `Cc1ccc(NC(=O)c2ccc(NN=C(C#N)C#N)c(C)c2)cn1` [Compound 55, (2-methyl-4-(6-methylpyridin-3-ylcarbamoyl)phenyl)carbonohydrazonoyl dicyanide], the “Cell viability (% @10 μM)” value in data set [1] is listed as 116.1%. Also, in data set [2] (setting [3]), the remaining activity at 10 µM was 65.6%.

Take `N#CC(C#N)=NNc1ccc(C(=O)Nc2cccnc2)nc1` [Compound 40, (6-(pyridin-3-ylcarbamoyl)pyridin-3-yl)carbonohydrazonoyl dicyanide]: in data set [1], the “Cell viability (% @10 μM)” value is listed as 130.7%. For the same molecule, the remaining activity at 10 µM in data set [2] (setting [3]) came out at 7.9%.
